Among the data in ChEMBL document CHEMBL3727355, “Chemokine receptor activity regulator” (2014) are inhibition values, retold here.

In the assay the target is T1, C-C chemokine receptor type 10 (Homo sapiens) (UniProt P46092).
T1 sequence (whole entry): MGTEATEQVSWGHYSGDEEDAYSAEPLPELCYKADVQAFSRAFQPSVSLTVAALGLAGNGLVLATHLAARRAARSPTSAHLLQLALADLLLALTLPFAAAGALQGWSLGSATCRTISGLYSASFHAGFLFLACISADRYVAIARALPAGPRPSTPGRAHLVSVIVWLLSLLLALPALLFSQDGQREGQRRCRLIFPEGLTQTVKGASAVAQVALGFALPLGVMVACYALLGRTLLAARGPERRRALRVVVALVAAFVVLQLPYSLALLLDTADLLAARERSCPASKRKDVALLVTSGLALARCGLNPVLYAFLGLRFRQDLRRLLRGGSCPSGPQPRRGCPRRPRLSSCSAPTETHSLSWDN
The assay is described as follows: Antagonist activity against human CCR10 expressed in human KJMGER8 cells assessed as inhibition of human recombinant CTACK-induced increase in intracellular calcium level at 100 nmol/L pre-incubated for 30 mins before human recombinant CTACK stimulation for 5 mins by FLIPR assay. It counts as functional, cell-based.

A value given as a limit tells only on which side of the number the result lay.

In the case of `CCNS(=O)(=O)c1cnn2c(Nc3cc(C)ccc3Cl)c(C(=O)N3CCC(c4ccc(F)cc4)CC3)cnc12`, the inhibition came to 87.8%.

As for `CCNC(=O)NS(=O)(=O)c1cnn2c(Nc3cc(C)ccc3Cl)c(C(=O)N3CCC4(CC3)OCc3ccccc34)cnc12`, the inhibition came to 95.2%.

Turning to `CCNC(=S)NS(=O)(=O)c1cnn2c(Nc3ccc(F)cc3C)c(C(=O)N3CCC(c4ccccc4)CC3)cnc12`, the inhibition was found to be 81.8%.

Consider `CCC(=O)NS(=O)(=O)c1cnn2c(Nc3cc(C)ccc3F)c(C(=O)N3CCC4(CC3)OCc3ccccc34)cnc12`, for which the inhibition is greater than 100%.

Turning to `CC(=O)NS(=O)(=O)c1cnn2c(Nc3cc(C)ccc3Cl)c(C(=O)N3CCC4(CC3)OCc3ccccc34)cnc12`, the inhibition was greater than 100%.

`Cc1cc(F)ccc1Nc1c(C(=O)N2CCC(c3ccccc3)CC2)cnc2c(S(=O)(=O)/N=C/N(C)C)cnn12`: the inhibition was found to be 68.9%.

`O=C(NS(=O)(=O)c1cnn2c(Nc3ccccc3Cl)c(C(=O)N3CCC(c4ccc(F)cc4)CC3)cnc12)C1CC1`: the inhibition is 80.6%.

As to `Cc1ccc(Cl)c(Nc2c(C(=O)N3CCC(c4ccc(F)cc4)CC3)cnc3c(S(=O)(=O)NC(N)=O)cnn23)c1`, the inhibition was greater than 100%.

For the compound `CC(=O)NS(=O)(=O)c1cnn2c(Nc3ccc(F)cc3C)c(C(=O)N3CCC(c4ccccc4)CC3)cnc12`, the inhibition was greater than 100%.

`CCNC(=O)NS(=O)(=O)c1cnn2c(Nc3ccc(F)cc3C)c(C(=O)N3CCC(c4ccccc4)CC3)cnc12`: the inhibition was found to be 72.6%.

Consider `Cc1cc(F)ccc1Nc1c(C(=O)N2CCC(c3ccccc3)CC2)cnc2c(S(=O)(=O)NC(=O)Nc3ccccc3)cnn12`, for which the inhibition is 63.7%.

As to `Cc1cc(F)ccc1Nc1c(C(=O)N2CCC(c3ccccc3)CC2)cnc2c(S(=O)(=O)NC(=O)C(F)(F)F)cnn12`, the inhibition is greater than 100%.

For the compound `CCNC(=O)NS(=O)(=O)c1cnn2c(Nc3ccc(Cl)c(Cl)c3)c(C(=O)N3CCC(c4ccc(F)cc4)CC3)cnc12`, the inhibition was greater than 100%.

For the compound `Cc1cc(Nc2c(C(=O)N3CCC(c4ccc(F)cc4)CC3)cnc3c(S(=O)(=O)NC(=O)C4CC4)cnn23)c(Cl)cc1F`, the inhibition is greater than 100%.

Consider `CC(=O)NS(=O)(=O)c1cnn2c(Nc3cc(F)ccc3F)c(C(=O)N3CCC(c4ccc(F)cc4)CC3)cnc12`, for which the inhibition was greater than 100%.

Take `CCNC(=O)NS(=O)(=O)c1cnn2c(Nc3cc(C)c(F)cc3Cl)c(C(=O)N3CCC(c4ccc(F)cc4)CC3)cnc12`: the inhibition is greater than 100%.

Take `CCNS(=O)(=O)c1cnn2c(Nc3ccc(F)cc3C)c(C(=O)N3CCC(c4ccccc4)CC3)cnc12`: the inhibition was greater than 100%.
